Laboratory results as given in paper PMC9086926 (RSC Advances, 2018).

Key:
[1] = Absorptive permeability across traditional 21 day Caco-2 cell model; conditions: human
[2] = cited from earlier work
[3] = Absorptive permeability across 7 day fast model; conditions: human, Caco-2

With CCc1cc(C(N)=S)ccn1 [Ethionamide] as the compound, how does the Papp A→B at 25 μM [1] read?
Its Papp A→B at 25 μM is 23.8 ± 0.94 ×10⁻⁶ cm/s.

And the “FA (human absorption fraction)” value [2]?
The value was 80%.

And the Papp A→B at 25 μM [3]?
Its Papp A→B at 25 μM is 20.4 ± 5.5 ×10⁻⁶ cm/s.

Which results are given for CC(C)(C)NCC(O)c1cc(O)cc(O)c1 (stereo not shown) [Terbutaline]?
Papp A→B at 25 μM [1]: 15.6 ± 1.28 ×10⁻⁶ cm/s; FA (human absorption fraction) [2]: 73%; Papp A→B at 25 μM [3]: 16.6 ± 0.7 ×10⁻⁶ cm/s

Which results are given for CC(C(=O)O)c1cccc(C(=O)c2ccccc2)c1 (stereo not shown) [Ketoprofen]?
Papp A→B at 25 μM [1]: 19.2 ± 1.93 ×10⁻⁶ cm/s; Papp A→B at 25 μM [3]: 15 ± 1.97 ×10⁻⁶ cm/s

Which Papp A→B at 25 μM [1] does the source give for CC(C)NCC(O)COc1cccc2ccccc12 (stereo not shown) [Propranolol] here?
The Papp A→B at 25 μM was 10.6 ± 1.66 ×10⁻⁶ cm/s.

What about the Papp A→B at 25 μM [3] of the same compound?
The Papp A→B at 25 μM was 9.37 ± 0.03 ×10⁻⁶ cm/s.

Which “FA (human absorption fraction)” value [2] does the source give for Nc1nnc(-c2cccc(Cl)c2Cl)c(N)n1 [Lamotrigine] here?
The value was 98%.

For COc1ccc2[nH]c([S+]([O-])Cc3ncc(C)c(OC)c3C)nc2c1 (stereo not shown) [Omeprazole], which Papp A→B at 25 μM [1] is on record?
Its Papp A→B at 25 μM is 12.6 ± 2.01 ×10⁻⁶ cm/s.

And the “FA (human absorption fraction)” value [2]?
Its value is 80%.

And the Papp A→B at 25 μM [3]?
The Papp A→B at 25 μM was 11.4 ± 0.47 ×10⁻⁶ cm/s.

With O=C(N[C@H](CO)[C@H](O)c1ccc([N+](=O)[O-])cc1)C(Cl)Cl [Chloramphenicol] as the compound, how does the Papp A→B at 25 μM [1] read?
The Papp A→B at 25 μM was 8.17 ± 0.06 ×10⁻⁶ cm/s.

What about the Papp A→B at 25 μM [3] of the same compound?
Its Papp A→B at 25 μM is 7.12 ± 0.04 ×10⁻⁶ cm/s.

With CC(NC(C)(C)C)C(=O)c1cccc(Cl)c1 (stereo not shown) [Bupropion] as the compound, how does the Papp A→B at 25 μM [1] read?
Its Papp A→B at 25 μM is 16.6 ± 0.99 ×10⁻⁶ cm/s.

What about the Papp A→B at 25 μM [3] of the same compound?
The Papp A→B at 25 μM was 12.9 ± 0.48 ×10⁻⁶ cm/s.

What does the source list for COC(=O)[C@H]1[C@H]2C[C@@H]3c4[nH]c5cc(OC)ccc5c4CCN3C[C@H]2C[C@@H](OC(=O)c2cc(OC)c(OC)c(OC)c2)[C@@H]1OC [Reserpine]?
Papp A→B at 25 μM [1]: 3.5 ± 0.69 ×10⁻⁶ cm/s; FA (human absorption fraction) [2]: 50%; Papp A→B at 25 μM [3]: 3.6 ± 0.43 ×10⁻⁶ cm/s

For CCOC(=O)C1=C(C)NC(C)=C(C(=O)OC)C1c1cccc(Cl)c1Cl (stereo not shown) [Felodipine], which Papp A→B at 25 μM [1] is on record?
The Papp A→B at 25 μM was 4.34 ± 0.63 ×10⁻⁶ cm/s.

What does the source list for NC(=O)N1c2ccccc2C=Cc2ccccc21 [Carbamazepine]?
Papp A→B at 25 μM [1]: 20.9 ± 1.93 ×10⁻⁶ cm/s; FA (human absorption fraction) [2]: 100%; Papp A→B at 25 μM [3]: 19.5 ± 0.87 ×10⁻⁶ cm/s

Which Papp A→B at 25 μM [1] does the source give for Nc1ccc(S(=O)(=O)Nc2ncccn2)cc1 [Sulfadiazine] here?
The Papp A→B at 25 μM was 9.76 ± 1.05 ×10⁻⁶ cm/s.

And the “FA (human absorption fraction)” value [2]?
The value was 65%.

With CC(=O)CC(c1ccccc1)c1c(O)c2ccccc2oc1=O (stereo not shown) [Warfarin sodium] as the compound, how does the Papp A→B at 25 μM [1] read?
The Papp A→B at 25 μM was 15.31 ± 0.002 ×10⁻⁶ cm/s.

What about the Papp A→B at 25 μM [3] of the same compound?
The Papp A→B at 25 μM was 14.44 ± 0.11 ×10⁻⁶ cm/s.

With CC(=O)N1CCN(c2ccc(OCC3COC(Cn4ccnc4)(c4ccc(Cl)cc4Cl)O3)cc2)CC1 (stereo not shown) [Ketoconazole] as the compound, how does the Papp A→B at 25 μM [1] read?
Its Papp A→B at 25 μM is 9.61 ± 0.01 ×10⁻⁶ cm/s.

And the “FA (human absorption fraction)” value [2]?
Its value is 76%.

What about the Papp A→B at 25 μM [3] of the same compound?
The Papp A→B at 25 μM was 8.33 ± 0.93 ×10⁻⁶ cm/s.

Which Papp A→B at 25 μM [1] does the source give for COCCc1ccc(OCC(O)CNC(C)C)cc1 (stereo not shown) [Metoprolol] here?
The Papp A→B at 25 μM was 12.1 ± 0.39 ×10⁻⁶ cm/s.

What about the Papp A→B at 25 μM [3] of the same compound?
Its Papp A→B at 25 μM is 11.8 ± 0.25 ×10⁻⁶ cm/s.
